{
  "source": "paper PMC11111035",
  "about": "“Lemon basil seed-derived peptide: Hydrolysis, purification, and its role as a pancreatic lipase inhibitor that reduces adipogenesis by downregulating SREBP-1c and PPAR-γ in 3T3-L1 adipocytes” (PLOS ONE, 2024)",
  "key": {"[1]": {"target": "T1, porcine pancreatic lipase (Sus scrofa, UniProt P00591)", "T1 sequence (P00591 1-450)": "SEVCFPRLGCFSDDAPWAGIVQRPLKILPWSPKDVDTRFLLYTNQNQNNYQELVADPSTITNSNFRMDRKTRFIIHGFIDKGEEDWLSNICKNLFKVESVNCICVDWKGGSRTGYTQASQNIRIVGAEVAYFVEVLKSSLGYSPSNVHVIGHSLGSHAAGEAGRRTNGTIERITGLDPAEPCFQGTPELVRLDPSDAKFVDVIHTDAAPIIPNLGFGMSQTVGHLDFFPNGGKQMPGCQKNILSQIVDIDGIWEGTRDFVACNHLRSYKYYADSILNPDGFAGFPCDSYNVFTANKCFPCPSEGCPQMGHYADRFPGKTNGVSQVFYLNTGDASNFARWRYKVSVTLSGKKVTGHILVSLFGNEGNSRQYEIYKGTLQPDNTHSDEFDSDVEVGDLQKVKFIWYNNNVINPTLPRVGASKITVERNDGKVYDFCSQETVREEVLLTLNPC", "test": "Lipase inhibitory activity (LI), pNPP substrate", "format": "biochemical", "conditions": "synthetic peptide, pH 7.0, 37°C, 30 min", "protocol": "(§1) The determination of lipase inhibition was performed using a method with slight modifications as described by Ketprayoon et al.. The p-nitrophenyl palmitate (pNPP) was served as the substrate, with a solution containing 30 mg of pNPP dissolved in 10 mL of isopropanol. This pNPP solution was then emulsified by combining it with 90 mL of 50 mM Tris-HCl at pH 7.0, 20 μL of Triton X-100 and 100 mg of gum arabic. The assay was initiate the assay by incubating the porcine pancreatic lipase (0.5 mg/mL in 50 mM Tris‐HCl buffer, pH 7.0), pNPP solution and DLSH peptides at a temperature of 37°C for 30 min. Absorbance was then measured at 410 nm for p-nitrophenol with Orlistat employed as the positive control. […] LI=AN−AP×100/AN (3) in which AN indicates the absorbance of the negative control in the absence of the peptide, whereas AP indicates the absorbance of activity when the peptide is present."}, "[2]": {"target": "T1, porcine pancreatic lipase", "test": "Kinetic study of lipase inhibition (Lineweaver-Burk, Dixon plot)", "format": "biochemical", "conditions": "non-competitive, pNPP, 37°C, pH 7.0, 30 min, mean ± SE (n = 3), read-out: Inhibition constant (Ki)", "protocol": "as §1\nThe inhibitory mechanism of the lipase inhibitor was investigated using the Lineweaver-Burk plot. […] The reaction mixtures were incubated under a temperature of 37°C and pH 7.0 for 30 min, while initial velocity rates were determined at different substrate concentrations (0.1, 0.2, 0.3, 0.4, and 0.5 mM). […] The Michaelis-Menten constant (Km) and maximum velocity (Vmax) for the lipase inhibition were determined by analyzing the intercepts on the x-axis and y-axis, respectively. […]"}, "3T3-L1 cells [3]": {"test_system": "3T3-L1 cells", "test": "MTT cell viability", "format": "cell-based", "conditions": "72 h, mean ± SE (n = 3), ns", "protocol": "Following incubation, each well received 10 μL of MTT solution (5 mg/mL), before a further 4 h of incubation at a temperature of 37°C. Then 100 μL of DMSO was added to dissolve the MTT-formazan crystals in the viable cells before measuring the absorbance at 540 nm."}, "3T3-L1 cells [4]": {"test_system": "3T3-L1 cells", "conditions": "cited from earlier work", "source_text": "Although we believe there have been no previous studies detailing the […] peptide, it can be considered as a suitable novel peptide capable of addressing the problem of obesity. The literature does contain references to peptides which act in a similar manner to affect preadipocytes during their initial proliferation. […] It was noted by Zhang et al. that th ..."}, "AMPK-α": {"test_system": "AMPK-α", "test": "Western blot AMPK-α expression", "format": "cell-based", "conditions": "GRSPDTHSG 0.25-1 mM or simvastatin 10 μM", "protocol": "On the first day, a modified assay proposed by Zhang et al. was carried out for the purpose of 3T3-L1 cells cell culture and differentiation, by initially seeding the 3T3-L1 preadipocyte cells in 6-well plates with a density of 1×10^5 cells per well and then culturing in DMEM with 10% FBS at a temperature of 37°C for 24 h in an atmosphere of 5% carbon dioxide. On the second day, adipocyte differentiation was performed by treating the 3T3-L1 cells with a differentiation medium comprising DMEM with 10% FBS, mixed with 0.5 mM 3-isobutyl-1-methylxanthine (IBMX), 1 μM dexamethasone, and 10 μg/mL insulin. This process took three days, whereupon on day 5 the original medium was removed and a new insulin medium, comprising DMEM with 10% FBS and 10 μg/mL insulin, was used to maintain adipocyte characteristics with a 3-day incubation period. […] Once extracted, the proteins of equivalent concentration underwent separation on 12% sodium dodecyl sulfate-polyacrylamide gel electrophoresis (SDS-PAGE) before moving to polyvinylidene fluoride (PVDF) membranes (Millipore, Bedford, MA, USA). […] The membranes were then incubated overnight at a temperature of 4°C with the primary antibodies (PPAR-γ, AMPK-α, SREBP-1C and β-actin) diluted at 1:1000. […] The band intensity could then be measured using ImageJ software (version 1.53; National Institutes of Health, MD, USA). […]"}, "3T3-L1 adipocytes": {"test_system": "3T3-L1 adipocytes", "test": "Intracellular lipid accumulation, Oil Red O staining", "format": "cell-based", "conditions": "simvastatin 10 μM (S); % of differentiated model (100%); mean ± SE", "protocol": "On the first day, a modified assay proposed by Zhang et al. was carried out for the purpose of 3T3-L1 cells cell culture and differentiation, by initially seeding the 3T3-L1 preadipocyte cells in 6-well plates with a density of 1×10^5 cells per well and then culturing in DMEM with 10% FBS at a temperature of 37°C for 24 h in an atmosphere of 5% carbon dioxide. On the second day, adipocyte differentiation was performed by treating the 3T3-L1 cells with a differentiation medium comprising DMEM with 10% FBS, mixed with 0.5 mM 3-isobutyl-1-methylxanthine (IBMX), 1 μM dexamethasone, and 10 μg/mL insulin. This process took three days, whereupon on day 5 the original medium was removed and a new insulin medium, comprising DMEM with 10% FBS and 10 μg/mL insulin, was used to maintain adipocyte characteristics with a 3-day incubation period. […] Oil Red O staining was then used to evaluate the intracellular lipid accumulation of the mature 3T3-L1 adipocytes. This process required the cells to first be rinsed in PBS and then fixed for 1 h at room temperature with 10% formalin. […] It was then possible to evaluate the accumulation of lipids by dissolving in isopropanol (100%), and to measure the absorbance at 540 nm. The lipid accumulation was expressed as a percentage in comparison to the control."}, "lipase": {"test_system": "lipase", "conditions": "cited from earlier work", "protocol": "The Lineweaver-Burk plot was used to evaluated the inhibition mode of the […] peptide obtained from DLSH, and the outcome can be observed in Fig 6(A) (S6 Table). The plot of the inhibition activity was created by altering the concentration of the substrate while maintaining the peptide concentration at the same level throughout (0, 0.1, 0.3 and 0.5 mM). […] The peptide accordingly acted as a lipase inhibitor by taking the form o ..."}},
  "note": "Ends that are not written are not given here.",
  "data": [
    {"compound": "GRSPDTHSG", "values": [
      {"measurement": "IC50", "setting": "[1]", "result": 255, "unit": "µM"},
      {"measurement": "Ki", "setting": "[2]", "result": "610 ± 90", "unit": "µM"},
      {"measurement": "Cell viability", "setting": "3T3-L1 cells [3]; 0.25 mM", "result": "97.02 ± 4.65", "unit": "%"},
      {"measurement": "Cell viability", "setting": "3T3-L1 cells [3]; 0.50 mM", "result": "92.90 ± 1.60", "unit": "%"},
      {"measurement": "Cell viability", "setting": "3T3-L1 cells [3]; 1.00 mM", "result": "85.96 ± 2.05", "unit": "%"}
    ]},
    {"compound": "NPVWKRK [peptide from Spirulina platensis protein, pepsin digestion]", "values": [
      {"measurement": "Triglyceride accumulation", "setting": "3T3-L1 cells [4]", "result": "potentially limiting triglyceride accumulation"}
    ]},
    {"compound": "LLVVYPWTQR [synthetic decapeptide derived from C. pyenoidose]", "values": [
      {"measurement": "Intracellular lipid accumulation", "setting": "3T3-L1 cells [4]; 600 μg/mL, reduced", "result": 27.91, "unit": "%"}
    ]},
    {"compound": "CCC(C)(C)C(=O)O[C@H]1C[C@@H](C)C=C2C=C[C@H](C)[C@H](CC[C@@H]3C[C@@H](O)CC(=O)O3)[C@H]21", "note": "[Simvastatin, simvastatin]", "values": [
      {"measurement": "AMPK expression, in words", "setting": "AMPK-α", "result": "AMPK expression level rose"},
      {"measurement": "Lipid accumulation", "setting": "3T3-L1 adipocytes", "result": "51.66 ± 1.81", "unit": "%"}
    ]},
    {"compound": "GAGVGY [GAGVGY]", "values": [
      {"measurement": "Glucose transport and lipid metabolism", "setting": "3T3-L1 cells [4]", "result": "enhance the transport of glucose and support the lipid metabolism in 3T3-L1 adipocytes"}
    ]},
    {"compound": "glutathione", "values": [
      {"measurement": "Mode of lipase inhibition", "setting": "lipase", "result": "non-competitive inhibition"}
    ]},
    {"compound": "DIVDKIEI [peptide derived from extract of boiled tuna]", "values": [
      {"measurement": "3T3-L1 preadipocyte differentiation", "setting": "3T3-L1 cells [4]", "result": "effective in inhibiting 3T3-L1 preadipocyte differentiation"},
      {"measurement": "Triglyceride levels and glucose uptake", "setting": "3T3-L1 cells [4]", "result": "lowering both triglyceride levels and the uptake of glucose"}
    ]},
    {"compound": "CANPHELPNK [peptide from Spirulina platensis protein, pepsin digestion]", "values": [
      {"measurement": "Triglyceride accumulation", "setting": "3T3-L1 cells [4]", "result": "potentially limiting triglyceride accumulation"}
    ]}
  ]
}
